Results: ChEMBL document CHEMBL1201862, “PubChem BioAssay data set” (2004)
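Cultured in 96-well plates, cells were exposed to test compound for 48 hours across five concentrations. GI50 is the concentration that inhibits growth by half.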 Calls of active or inactive are those of the source. No stated cut-off is given here; in the data, active = GI50 up to about 1.1 µM and inactive = higher.

Assays:
Assay in all cases: NCI tumour cell line growth inhibition, 48 h
TK-10 = system: TK-10
MCF7 = system: MCF7
Hs-578T = system: Hs-578T
T47D = system: T47D
MDA-MB-435 = system: MDA-MB-435
SK-MEL-28 = system: SK-MEL-28
SNB-19 = system: SNB-19
HOP-62 = system: HOP-62
BT-549 = system: BT-549
HT-29 = system: HT-29
ACHN = system: ACHN
U-251 = system: U-251
DU-145 = system: DU-145
A498 = system: A498
MDA-N = system: MDA-N
HCT-116 = system: HCT-116
SK-MEL-5 = system: SK-MEL-5
SK-MEL-2 = system: SK-MEL-2
KM12 = system: KM12
SF-539 = system: SF-539
SF-295 = system: SF-295
RXF 393 = system: RXF 393
NCI-H23 = system: NCI-H23
OVCAR-3 = system: OVCAR-3
OVCAR-8 = system: OVCAR-8
OVCAR-4 = system: OVCAR-4
HCT-15 = system: HCT-15
NCI/ADR-RES = system: NCI/ADR-RES
OVCAR-5 = system: OVCAR-5
786-0 = system: 786-0
UO-31 = system: UO-31
RPMI-8226 = system: RPMI-8226
MOLT-4 = system: MOLT-4
HCC 2998 = system: HCC 2998
UACC-62 = system: UACC-62
EKVX = system: EKVX
IGROV-1 = system: IGROV-1
SW-620 = system: SW-620
NCI-H460 = system: NCI-H460
COLO 205 = system: COLO 205
SNB-75 = system: SNB-75
M14 = system: M14
SN12C = system: SN12C
SK-OV-3 = system: SK-OV-3
HOP-92 = system: HOP-92
A549 = system: A549
NCI-H226 = system: NCI-H226
SF-268 = system: SF-268
MDA-MB-231 = system: MDA-MB-231
UACC-257 = system: UACC-257
CCRF-CEM = system: CCRF-CEM
K562 = system: K562
NCI-H522 = system: NCI-H522
CAKI-1 = system: CAKI-1
SR = system: SR
Malme-3M = system: Malme-3M
HL-60 = system: HL-60
LOX IMVI = system: LOX IMVI

Structure (SMILES): O=C(Cc1ccccc1)NN1C(=O)/C(=C\c2ccccc2O)S/C1=N\c1ccccc1
- GI50 (TK-10): > 100 µM (inactive)
- GI50 (MCF7): > 100 µM (inactive)
- GI50 (Hs-578T): > 100 µM (inactive)
- GI50 (T47D): > 100 µM (inactive)
- GI50 (MDA-MB-435): > 100 µM (inactive)
- GI50 (SK-MEL-28): > 100 µM (inactive)
- GI50 (SNB-19): > 100 µM (inactive)
- GI50 (HOP-62): > 100 µM (inactive)
- GI50 (BT-549): > 100 µM (inactive)
- GI50 (HT-29): > 100 µM (inactive)
- GI50 (ACHN): > 100 µM (inactive)
- GI50 (U-251): > 100 µM (inactive)
- GI50 (DU-145): > 100 µM (inactive)
- GI50 (A498): > 100 µM (inactive)
- GI50 (MDA-N): > 100 µM (inactive)
- GI50 (HCT-116): > 100 µM (inactive)
- GI50 (SK-MEL-5): > 100 µM (inactive)
- GI50 (SK-MEL-2): > 100 µM (inactive)
- GI50 (KM12): > 100 µM (inactive)
- GI50 (SF-539): > 100 µM (inactive)
- GI50 (SF-295): > 100 µM (inactive)
- GI50 (RXF 393): > 100 µM (inactive)
- GI50 (NCI-H23): > 100 µM (inactive)
- GI50 (OVCAR-3): > 100 µM (inactive)
- GI50 (OVCAR-8): > 100 µM (inactive)
- GI50 (OVCAR-4): > 100 µM (inactive)
- GI50 (HCT-15): > 100 µM
- GI50 (NCI/ADR-RES): > 100 µM (inactive)
- GI50 (OVCAR-5): > 100 µM (inactive)
- GI50 (786-0): > 100 µM (inactive)
- GI50 (UO-31): > 100 µM (inactive)
- GI50 (RPMI-8226): > 100 µM (inactive)
- GI50 (MOLT-4): > 100 µM (inactive)
- GI50 (HCC 2998): > 100 µM (inactive)
- GI50 (UACC-62): > 100 µM (inactive)
- GI50 (EKVX): > 100 µM (inactive)
- GI50 (IGROV-1): > 100 µM (inactive)
- GI50 (SW-620): > 100 µM (inactive)
- GI50 (NCI-H460): > 100 µM (inactive)
- GI50 (COLO 205): > 100 µM (inactive)
- GI50 (SNB-75): > 100 µM (inactive)
- GI50 (M14): > 100 µM (inactive)
- GI50 (SN12C): > 100 µM (inactive)
- GI50 (SK-OV-3): > 100 µM (inactive)
- GI50 (HOP-92): 39.3 µM (inactive)
- GI50 (A549): > 100 µM (inactive)
- GI50 (NCI-H226): > 100 µM (inactive)
- GI50 (SF-268): > 100 µM (inactive)
- GI50 (MDA-MB-231): > 100 µM (inactive)
- GI50 (UACC-257): > 100 µM (inactive)

Structure (SMILES): S=C1NCCN1C(=S)Nc1ccccc1
- GI50 (TK-10): 95.9 µM (inactive)
- GI50 (MCF7): > 100 µM (inactive)
- GI50 (Hs-578T): 84.1 µM (inactive)
- GI50 (T47D): 40.1 µM (inactive)
- GI50 (MDA-MB-435): 46.5 µM (inactive)
- GI50 (SK-MEL-28): 56.2 µM (inactive)
- GI50 (CCRF-CEM): 62.2 µM (inactive)
- GI50 (HOP-62): > 100 µM (inactive)
- GI50 (BT-549): 83 µM (inactive)
- GI50 (HT-29): > 100 µM (inactive)
- GI50 (ACHN): > 100 µM (inactive)
- GI50 (U-251): > 100 µM (inactive)
- GI50 (DU-145): > 100 µM (inactive)
- GI50 (A498): 32.4 µM (inactive)
- GI50 (MDA-N): > 100 µM (inactive)
- GI50 (HCT-116): 91.2 µM (inactive)
- GI50 (SK-MEL-5): > 100 µM (inactive)
- GI50 (SK-MEL-2): > 100 µM (inactive)
- GI50 (KM12): 49.9 µM (inactive)
- GI50 (SF-539): 46.3 µM (inactive)
- GI50 (SF-295): > 100 µM (inactive)
- GI50 (RXF 393): 10.5 µM (inactive)
- GI50 (NCI-H23): 60.4 µM (inactive)
- GI50 (OVCAR-3): 90.8 µM (inactive)
- GI50 (K562): 74.6 µM (inactive)
- GI50 (NCI-H522): 60.8 µM (inactive)
- GI50 (CAKI-1): 46.8 µM (inactive)
- GI50 (OVCAR-8): > 100 µM (inactive)
- GI50 (OVCAR-4): 21.9 µM (inactive)
- GI50 (HCT-15): 68.9 µM
- GI50 (NCI/ADR-RES): > 100 µM (inactive)
- GI50 (OVCAR-5): > 100 µM (inactive)
- GI50 (786-0): > 100 µM (inactive)
- GI50 (SR): 42.4 µM (inactive)
- GI50 (UO-31): 36.7 µM (inactive)
- GI50 (MOLT-4): 34.8 µM (inactive)
- GI50 (HCC 2998): 65.5 µM (inactive)
- GI50 (UACC-62): 96.8 µM (inactive)
- GI50 (EKVX): 33.9 µM (inactive)
- GI50 (IGROV-1): > 100 µM (inactive)
- GI50 (SW-620): > 100 µM (inactive)
- GI50 (NCI-H460): 89.5 µM (inactive)
- GI50 (COLO 205): 71.6 µM (inactive)
- GI50 (SNB-75): 32.4 µM (inactive)
- GI50 (M14): 61.5 µM (inactive)
- GI50 (SN12C): > 100 µM (inactive)
- GI50 (SK-OV-3): > 100 µM (inactive)
- GI50 (HOP-92): 66.8 µM (inactive)
- GI50 (A549): 44.1 µM (inactive)
- GI50 (Malme-3M): > 100 µM (inactive)
- GI50 (NCI-H226): 51.4 µM (inactive)
- GI50 (SF-268): 99.5 µM (inactive)
- GI50 (HL-60): > 100 µM (inactive)
- GI50 (LOX IMVI): > 100 µM (inactive)
- GI50 (MDA-MB-231): > 100 µM (inactive)
- GI50 (UACC-257): 96.2 µM (inactive)
